How the values were obtained:
Test in all cases: Bliss excess, mean over the matrix (fraction); higher = more synergy
[1] = tested on: BFTC-905 (Bladder Carcinoma)
Procedure, shortened: (§1)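 After 24 hours at 37°C and 5% CO2 in 1536-well plates, cells in DMEM/F12 or RPMI plus 10% FBS received two-drug dose matrices for 72 hours. Viability came from CellTiter-Glo 2.0 luminescence and was scaled as inhibition, anchored at 0 by vehicle wells and at 1 by blank wells. Combination Emax is taken as the second-highest inhibition in the matrix, and Bliss excess as the observed combination effect less EA + EB − EA·EB, with EA and EB the single-agent effects.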

[2] = tested on: BL-41 (Burkitt's Lymphoma)
Procedure, shortened: as §1

[3] = tested on: DND-41 (T-Lymphoblastic Leukemia)
Procedure, shortened: as §1

ES1 (Ewing's Sarcoma) = tested on: ES1 (Ewing's Sarcoma)
Procedure, shortened: as §1

ES8 (Ewing's Sarcoma) = tested on: ES8 (Ewing's Sarcoma)
Procedure, shortened: as §1

[4] = tested on: GR-ST (B-Lymphoblastic Leukemia)
Procedure, shortened: as §1

[5] = tested on: HL-60 (Acute Myeloid Leukemia)
Procedure, shortened: as §1

[6] = tested on: K-562 (Chronic Myelogenous Leukemia)
Procedure, shortened: as §1

[7] = tested on: KARPAS-45 (T-Lymphoblastic Leukemia)
Procedure, shortened: as §1

[8] = tested on: KCL-22 (Chronic Myelogenous Leukemia)
Procedure, shortened: as §1

LN-18 (Glioblastoma) = tested on: LN-18 (Glioblastoma)
Procedure, shortened: as §1

[9] = tested on: MOLT-16 (T-Lymphoblastic Leukemia)
Procedure, shortened: as §1

[10] = tested on: MS751 (Cervical Carcinoma)
Procedure, shortened: as §1

NCI-H2818 (Mesothelioma) = tested on: NCI-H2818 (Mesothelioma)
Procedure, shortened: as §1

[11] = tested on: P12-ICHIKAWA (T-Lymphoblastic Leukemia)
Procedure, shortened: as §1

[12] = tested on: PANC-08-13 (Pancreatic Carcinoma)
Procedure, shortened: as §1

[13] = tested on: SR (Other Blood Carcinomas)
Procedure, shortened: as §1

[14] = tested on: SU-DHL-8 (B-Cell Non-Hodgkin's Lymphoma)
Procedure, shortened: as §1

[15] = tested on: SW1417 (Colorectal Carcinoma)
Procedure, shortened: as §1

WIL2-NS (Non-Cancerous) = tested on: WIL2-NS (Non-Cancerous)
Procedure, shortened: as §1

Compound | Bliss excess [1] | Bliss excess [2] | Bliss excess [3] | Bliss excess (ES1 (Ewing's Sarcoma)) | Bliss excess (ES8 (Ewing's Sarcoma)) | Bliss excess [4] | Bliss excess [5] | Bliss excess [6] | Bliss excess [7] | Bliss excess [8] | Bliss excess (LN-18 (Glioblastoma)) | Bliss excess [9] | Bliss excess [10] | Bliss excess (NCI-H2818 (Mesothelioma)) | Bliss excess [11] | Bliss excess [12] | Bliss excess [13] | Bliss excess [14] | Bliss excess [15] | Bliss excess (WIL2-NS (Non-Cancerous))
Cc1c2c(nn1C)CSCc1cc(n(C)n1)CSc1cc(c3ccccc3c1)OCCCc1c(C(=O)O)n(C)c3c-2c(Cl)ccc13 [AZD5991] + CN(C)CCCOc1ccc(-c2ccc3ncc4c(c3c2)n(C2CCOCC2)c(=O)n4C)cn1 [AZD0156] (first compound max 1 µM, 7x7, partner max 1 µM) | 0.0304 | 0.0168 | 0.0195 | 0.0092 | 0.0224 | -0.112 | 0.006 | 0.0048 | -0.0403 | 0.0191 | 0.0444 | -0.0302 | 0.0099 | -0.0052 | 0.108 | -0.0158 | 0.0246 | -0.0377 | 0.0308 | -0.0099
CN(C)CCCOc1ccc(-c2ccc3ncc4c(c3c2)n(C2CCOCC2)c(=O)n4C)cn1 [AZD0156] + O=C(c1cc(Cc2n[nH]c(=O)c3ccccc23)ccc1F)N1CCN(C(=O)C2CC2)CC1 [Olaparib] (first compound max 3 µM, partner max 3 µM) | 0.175 | 0.127 | 0.0867 | 0.245 | 0.39 | 0.131 | 0.141 | 0.0271 | 0.0456 | 0.157 | 0.0366 | 0.397 | -0.0033 | -0.0202 | 0.191 | -0.0215 | 0.194 | 0.0543 | -0.0287 | 0.215
CC(=O)Nc1cccc(-n2c(=O)n(C3CC3)c(=O)c3c(Nc4ccc(I)cc4F)n(C)c(=O)c(C)c32)c1 [Trametinib] + Cc1nc(-c2cn3c(n2)-c2ccc(-c4cnn(C(C)(C)C(N)=O)c4)cc2OCC3)n(C(C)C)n1 [Taselisib] (first compound max 1 µM, 7x7, partner max 10 µM) | 0.167 | 0.0485 | 0.164 | 0.0161 | -0.0924 | -0.0059 | 0.228 | 0.151 | 0.112 | 0.292 | 0.0432 | 0.006 | 0.128 | -0.0103 | 0.267 | 0.132 | 0.22 | -0.0358 | -0.0045 | 0.174
CN(CCO)CC[C@H](CSc1ccccc1)Nc1ccc(S(=O)(=O)NC(=O)c2ccc(N3CCC([C@@H](O)c4ccccc4-c4ccc(Cl)cc4)CC3)cc2)cc1S(=O)(=O)C(F)(F)F [AZD4320] + C[C@@H]1COCCN1C2=NC(=NC(=C2)C3(CC3)[S@](=N)(=O)C)C4=C5C=CNC5=NC=C4 [AZD6738] (first compound max 1 µM, 7x7, partner max 10 µM) | -0.0286 | -0.0221 | -0.0028 | 0.0567 | 0.155 | -0.0413 | -0.0348 | -0.0245 | -0.0069 | 0.0092 | -0.0705 | -0.0095 | 0.0029 | -0.157 | -0.0133 | -0.019 | -0.0068 | 0.019 | -0.0757 | -0.0004
COc1nnc2ccc(N3CCC(c4ccc(OCCN5CCN(C)C(=O)[C@H]5C)cc4)CC3)nn12 [AZD5153] + C[C@@H]1COCCN1C2=NC(=NC(=C2)C3(CC3)[S@](=N)(=O)C)C4=C5C=CNC5=NC=C4 [AZD6738] (first compound max 1 µM, 7x7, partner max 10 µM) | -0.05 | -0.0562 | 0.0628 | -0.015 | -0.0096 | -0.0956 | -0.0003 | -0.0303 | -0.0191 | -0.0188 | -0.02 | -0.0105 | 0.0833 | -0.0383 | 0.055 | 0.035 | -0.016 | 0.0042 | 0.0052 | -0.0766
Cc1c2c(nn1C)CSCc1cc(n(C)n1)CSc1cc(c3ccccc3c1)OCCCc1c(C(=O)O)n(C)c3c-2c(Cl)ccc13 [AZD5991] + Cc1cc2ncnn2cc1Nc1ncc2c(n1)n(C1CCOCC1)c(=O)n2C [AZD7648] (first compound max 1 µM, 7x7, partner max 10 µM) | -0.0282 | 0.029 | -0.0023 | -0.013 | 0.0038 | -0.149 | 0.0014 | 0.0044 | -0.0163 | -0.0086 | -0.025 | -0.023 | -0.0396 | -0.0757 | -0.0167 | 0.0012 | 0.0257 | -0.0664 | 0.0054 | 0.0039
COc1nnc2ccc(N3CCC(c4ccc(OCCN5CCN(C)C(=O)[C@H]5C)cc4)CC3)nn12 [AZD5153] + CCN(CCO)CCCOc1ccc2c(Nc3cc(CC(=O)Nc4cccc(F)c4)[nH]n3)ncnc2c1 [AZD2811] (first compound max 1 µM, 7x7, partner max 1 µM) | -0.0452 | -0.0369 | 0.0529 | -0.0504 | -0.0119 | -0.0238 | -0.0076 | -0.0153 | -0.0171 | 0.0425 | -0.107 | -0.0173 | 0.0349 | -0.0083 | 0.0024 | -0.0175 | -0.0672 | 0.107 | -0.0301 | -0.0421
CC1(C)CCC(CN2CCN(c3ccc(C(=O)NS(=O)(=O)c4ccc(NCC5CCOCC5)c([N+](=O)[O-])c4)c(Oc4cnc5[nH]ccc5c4)c3)CC2)=C(c2ccc(Cl)cc2)C1 [Venetoclax] + CCN(CCO)CCCOc1ccc2c(Nc3cc(CC(=O)Nc4cccc(F)c4)[nH]n3)ncnc2c1 [AZD2811] (first compound max 1 µM, 7x7, partner max 1 µM) | -0.01 | -0.137 | 0.0178 | 0.0721 | 0.0092 | -0.0505 | -0.0385 | -0.0236 | -0.0373 | 0.0709 | -0.0146 | 0.0239 | 0.0094 | -0.0404 | -0.0612 | -0.0269 | 0.0073 | 0.0103 | -0.0567 | 0.0275
CC1(C)CCC(CN2CCN(c3ccc(C(=O)NS(=O)(=O)c4ccc(NCC5CCOCC5)c([N+](=O)[O-])c4)c(Oc4cnc5[nH]ccc5c4)c3)CC2)=C(c2ccc(Cl)cc2)C1 [Venetoclax] + C=CCn1c(=O)c2cnc(Nc3ccc(N4CCN(C)CC4)cc3)nc2n1-c1cccc(C(C)(C)O)n1 [AZD1775] (first compound max 1 µM, partner max 1 µM) | 0.0078 | -0.0319 | 0.103 | 0.0747 | 0.0309 | -0.0109 | -0.0175 | 0.0486 | -0.0002 | -0.0114 | 0.0062 | 0.143 | 0.0125 | -0.0649 | 0.0117 | -0.0153 | 0.062 | 0.0401 | -0.0132 | 0.054

Reference: the supplement of paper PMC11061612
